Data taken from patent EP4778924A1 (Huons Co., Ltd., priority 2023, dated 2025).
pIC50: −log10 of the molar value. Counter-ions that a name gives are not always drawn.

target: T1, Proton Pump (H^+,K^+-ATPase) (Sus scrofa, UniProt P19156); experiment: Inhibitory activity on proton pump (H+,K+-ATPase) activity, porcine gastric vesicles, malachite green readout; type: biochemical; conditions: porcine gastric vesicles, pH 6.5, 8 mM KCl, 0.2 mM ATP
T1 construct: gastric vesicles were isolated from porcine stomachs; from tissue; host or cells: porcine stomach (gastric vesicles)
Experimental: Specifically, gastric vesicles were isolated from porcine stomachs, and the protein content of the vesicles was quantified using a BSA kit (Bio-Rad, 5000205). All reactions were performed in 96-well plates with a reaction volume of […] containing 100 ng of vesicles. 10 mM valinomycin and the test compound were added to reaction buffer (50 mM Tris-HEPES, 5 mM MgCl2, 8 mM KCl, pH 6.5) containing porcine gastric vesicles at various concentrations, and the mixture was incubated at 37°C for 30 minutes. DMSO or test compounds at different concentrations were added after diluting them to a final DMSO concentration of 0.1%. 0.2 mM adenosine triphosphate (ATP) was then added to the reaction buffer and incubated at 37°C for 20 minutes. The reaction was stopped with 0.2% Tween 20, followed by the addition of malachite green (Sigma Aldrich, MAK307) and incubation at room temperature for 30 minutes. The optical density (OD) value was measured at 620 nm using a microplate reader (Spectramax M5e, Molecular devices). The percent (%) inhibition was derived from the OD values of the control group and various concentrations of the test compounds. The IC50 of the test compounds was analyzed using nonlinear regression using the GraphPad Prism8 program using the % inhibition value at each concentration.

T1 sequence (P19156 2-1034 limits assumed): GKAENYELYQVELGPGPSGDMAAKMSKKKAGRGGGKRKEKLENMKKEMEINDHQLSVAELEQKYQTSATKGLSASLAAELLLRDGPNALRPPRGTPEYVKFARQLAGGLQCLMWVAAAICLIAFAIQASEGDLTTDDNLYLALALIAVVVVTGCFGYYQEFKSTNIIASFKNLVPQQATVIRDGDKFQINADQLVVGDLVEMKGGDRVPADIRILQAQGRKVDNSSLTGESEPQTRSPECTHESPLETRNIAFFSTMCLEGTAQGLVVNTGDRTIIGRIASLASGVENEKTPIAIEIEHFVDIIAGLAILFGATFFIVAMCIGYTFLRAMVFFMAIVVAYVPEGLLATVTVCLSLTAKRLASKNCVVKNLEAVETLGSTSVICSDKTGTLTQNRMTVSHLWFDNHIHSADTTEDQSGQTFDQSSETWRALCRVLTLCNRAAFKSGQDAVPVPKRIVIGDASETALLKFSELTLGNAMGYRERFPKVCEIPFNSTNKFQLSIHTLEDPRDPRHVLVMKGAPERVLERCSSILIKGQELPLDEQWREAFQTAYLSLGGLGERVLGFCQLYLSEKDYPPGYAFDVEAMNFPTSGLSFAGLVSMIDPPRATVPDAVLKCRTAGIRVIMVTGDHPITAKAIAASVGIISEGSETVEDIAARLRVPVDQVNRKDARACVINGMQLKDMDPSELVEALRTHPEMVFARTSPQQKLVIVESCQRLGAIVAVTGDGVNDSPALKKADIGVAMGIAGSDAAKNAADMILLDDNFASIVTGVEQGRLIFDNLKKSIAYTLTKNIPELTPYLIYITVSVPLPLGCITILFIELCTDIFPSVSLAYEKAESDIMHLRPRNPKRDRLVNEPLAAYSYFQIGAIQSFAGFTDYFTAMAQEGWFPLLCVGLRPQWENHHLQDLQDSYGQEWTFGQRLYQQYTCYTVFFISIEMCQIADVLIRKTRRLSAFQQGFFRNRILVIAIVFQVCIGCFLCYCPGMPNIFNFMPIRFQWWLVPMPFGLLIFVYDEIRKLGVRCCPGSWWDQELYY
T1 sequence (P18434 whole entry partner): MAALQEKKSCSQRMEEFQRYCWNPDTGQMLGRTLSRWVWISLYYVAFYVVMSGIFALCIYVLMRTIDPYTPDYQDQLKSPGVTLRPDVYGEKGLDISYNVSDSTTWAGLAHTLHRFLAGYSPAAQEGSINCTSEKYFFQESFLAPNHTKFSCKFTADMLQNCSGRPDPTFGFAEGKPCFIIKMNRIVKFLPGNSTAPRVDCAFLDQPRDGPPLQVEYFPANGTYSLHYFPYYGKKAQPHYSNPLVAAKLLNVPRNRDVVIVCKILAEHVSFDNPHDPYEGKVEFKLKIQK

| pIC50 | SMILES |
| --- | --- |
| 6.30 to 7.00 | Cc1cccc(C)c1CNc1cc(NC(=O)C2CC(F)C2)cn2c(C)c(C)nc12 (stereo not shown) [Example 17, N-(8-((2,6-dimethylbenzyl)amino)-2,3-dimethylimidazo[1,2-a]pyridin-6-yl)-3-fluorocyclobutane-1-carboxamide] |
| < 6.30 | Cc1cccc(C)c1CNc1cc(NS(=O)(=O)C2CCC2)cn2c(C)c(C)nc12 [Example 18, N-(8-((2,6-dimethylbenzyl)amino)-2,3-dimethylimidazo[1,2-a]pyridin-6-yl)cyclobutanesulfonamide] |
| 7.00 to 7.30 | Cc1cccc(C)c1CNc1cc(NC(=O)[C@H](C)N)cn2c(C)c(C)nc12 [Example 19, (S)-2-amino-N-(8-((2,6-dimethylbenzyl)amino)-2,3-dimethylimidazo[1,2-a]pyridin-6-yl)propanamide hydrochloride] |
| 7.00 to 7.30 | CCNC(=O)Nc1cc(NCc2c(C)cccc2C)c2nc(C)c(C)n2c1 [Example 22, 1-(8-((2,6-dimethylbenzyl)amino)-2,3-dimethylimidazo[1,2-a]pyridin-6-yl)-3-ethylurea] |
| 7.00 to 7.30 | Cc1cccc(C)c1CNc1cc(NC(=O)NC2CCC2)cn2c(C)c(C)nc12 [Example 23, 1-cyclobutyl-3-(8-((2,6-dimethylbenzyl)amino)-2,3-dimethylimidazo[1,2-a]pyridin-6-yl)urea hydrochloride] |
| 6.30 to 7.00 | CC(=O)OCC(=O)Nc1cc(NCc2c(C)cccc2C)c2nc(C)c(C)n2c1 [Example 25, 2-((8-((2,6-dimethylbenzyl)amino)-2,3-dimethylimidazo[1,2-a]pyridin-6-yl)amino)-2-oxoethyl acetate] |
| 7.00 to 7.30 | Cc1cccc(C)c1CNc1cc(NC(=O)C(C)(C)N)cn2c(C)c(C)nc12 [Example 27, 2-amino-N-(8-((2,6-dimethylbenzyl)amino)-2,3-dimethylimidazo[1,2-a]pyridin-6-yl)-2-methylpropanamide hydrochloride] |
| < 6.30 | Cc1cccc(C)c1CNc1cc(NC(=O)NC23CC(C2)C3)cn2c(C)c(C)nc12 [Example 29, 1-(bicyclo[1.1.1]pentan-1-yl)-3-(8-((2,6-dimethylbenzyl)amino)-2,3-dimethylimidazo[1,2-a]pyridin-6-yl)urea hydrochloride] |
| 6.30 to 7.00 | Cc1cccc(C)c1CNc1cc(NC(=O)NC(C)C)cn2c(C)c(C)nc12 [Example 31, 1-(8-((2,6-dimethylbenzyl)amino)-2,3-dimethylimidazo[1,2-a]pyridin-6-yl)-3-isopropylurea hydrochloride] |
| 7.00 to 7.30 | Cc1cccc(C)c1CNc1cc(NC(=O)[C@H]2CCN2)cn2c(C)c(C)nc12 [Example 36, (R)-N-(8-((2,6-dimethylbenzyl)amino)-2,3-dimethylimidazo[1,2-a]pyridin-6-yl)azetidine-2-carboxamide hydrochloride] |
| 7.00 to 7.30 | Cc1cccc(C)c1CNc1cc(NC(=O)NCCN)cn2c(C)c(C)nc12 [Example 37, 1-(2-aminoethyl)-3-(8-((2,6-dimethylbenzyl)amino)-2,3-dimethylimidazo[1,2-a]pyridin-6-yl)urea hydrochloride] |
| > 7.30 | Cc1cccc(C)c1CNc1cc(NC(=O)N(C)C)cn2c(C)c(C)nc12 [Example 43, 3-(8-((2,6-dimethylbenzyl)amino)-2,3-dimethylimidazo[1,2-a]pyridin-6-yl)-1,1-dimethylurea hydrochloride] |
| 7.00 to 7.30 | CNC(=O)CNC(=O)Nc1cc(NCc2c(C)cccc2C)c2nc(C)c(C)n2c1 [Example 47, 2-(3-(8-((2,6-dimethylbenzyl)amino)-2,3-dimethylimidazo[1,2-a]pyridin-6-yl)ureido)-N-methylacetamide hydrochloride] |
| 7.00 to 7.30 | Cc1cccc(C)c1CNc1cc(NC(=O)NCC(=O)N(C)C)cn2c(C)c(C)nc12 [Example 48, 2-(3-(8-((2,6-dimethylbenzyl)amino)-2,3-dimethylimidazo[1,2-a]pyridin-6-yl)ureido)-N,N-dimethylacetamide hydrochloride] |
| > 7.30 | Cc1cc(F)cc(C)c1CNc1cc(NC(=O)N2CCC2)cn2c(C)c(C)nc12 [Example 51, N-(8-((4-fluoro-2,6-dimethylbenzyl)amino)-2,3-dimethylimidazo[1,2-a]pyridin-6-yl)azetidine-1-carboxamide citrate] |
| 6.30 to 7.00 | CC(=O)NCC(=O)Nc1cc(NCc2c(C)cccc2C)c2nc(C)c(C)n2c1 [Example 52, 2-acetamido-N-(8-((2,6-dimethylbenzyl)amino)-2,3-dimethylimidazo[1,2-a]pyridin-6-yl)acetamide] |
| 6.30 to 7.00 | Cc1cccc(C)c1CNc1cc(NC(=O)CN(C)C)cn2c(C)c(C)nc12 [Example 53, 2-(dimethylamino)-N-(8-((2,6-dimethylbenzyl)amino)-2,3-dimethylimidazo[1,2-a]pyridin-6-yl)acetamide] |
| < 6.30 | Cc1cccc(C)c1CNc1cc(NC(=O)CNC(=O)C(C)(C)C)cn2c(C)c(C)nc12 [Example 55, N-(2-((8-((2,6-dimethylbenzyl)amino)-2,3-dimethylimidazo[1,2-a]pyridin-6-yl)amino)-2-oxoethyl)pivalamide] |

Continued, compound first:

| SMILES | pIC50 |
| --- | --- |
| Cc1cccc(C)c1CNc1cc(NC(=O)[C@@H](C)N)cn2c(C)c(C)nc12 [Example 20, (R)-2-amino-N-(8-((2,6-dimethylbenzyl)amino)-2,3-dimethylimidazo[1,2-a]pyridin-6-yl)propanamide hydrochloride] | 7.00 to 7.30 |
| Cc1cccc(C)c1CNc1cc(NC(=O)NC2CC2)cn2c(C)c(C)nc12.Cl [Example 24, 1-cyclopropyl-3-(8-((2,6-dimethylbenzyl)amino)-2,3-dimethylimidazo[1,2-a]pyridin-6-yl)urea hydrochloride] | > 7.30 |
| Cc1cccc(C)c1CNc1cc(N2CCC2=O)cn2c(C)c(C)nc12 [Example 28, 1-(8-((2,6-dimethylbenzyl)amino)-2,3-dimethylimidazo[1,2-a]pyridin-6-yl)azetidin-2-one] | < 6.30 |
| Cc1cccc(C)c1CNc1cc(NC(=O)NCC2CC2)cn2c(C)c(C)nc12 [Example 30, 1-(cyclopropylmethyl)-3-(8-((2,6-dimethylbenzyl)amino)-2,3-dimethylimidazo[1,2-a]pyridin-6-yl)urea hydrochloride] | 6.30 to 7.00 |
| CCN(C)C(=O)Nc1cc(NCc2c(C)cccc2C)c2nc(C)c(C)n2c1 [Example 32, 3-(8-((2,6-dimethylbenzyl)amino)-2,3-dimethylimidazo[1,2-a]pyridin-6-yl)-1-ethyl-1-methylurea hydrochloride] | 7.00 to 7.30 |
| CNC(=O)Nc1cc(NCc2c(C)cccc2C)c2nc(C)c(C)n2c1 [Example 33, hydrochloride] | > 7.30 |
| CCOC(=O)CC(=O)Nc1cc(NCc2c(C)cccc2C)c2nc(C)c(C)n2c1 [Example 34, ethyl 3-((8-((2,6-dimethylbenzyl)amino)-2,3-dimethylimidazo[1,2-a]pyridin-6-yl)amino)-3-oxopropanoate] | < 6.30 |
| Cc1cccc(C)c1CNc1cc(NC(=O)[C@@H]2CCN2)cn2c(C)c(C)nc12 [Example 35, (S)-N-(8-((2,6-dimethylbenzyl)amino)-2,3-dimethylimidazo[1,2-a]pyridin-6-yl)azetidine-2-carboxamide hydrochloride] | 7.00 to 7.30 |
| Cc1cccc(C)c1CNc1cc(NC(=O)CCC(=O)O)cn2c(C)c(C)nc12 [Example 38, 4-((8-((2,6-dimethylbenzyl)amino)-2,3-dimethylimidazo[1,2-a]pyridin-6-yl)amino)-4-oxobutanoic acid] | < 6.30 |
| Cc1cccc(C)c1CNc1cc(NC(=O)CCOCCC(=O)O)cn2c(C)c(C)nc12 [Example 39] | < 6.30 |
| CCOC(=O)CCC(=O)Nc1cc(NCc2c(C)cccc2C)c2nc(C)c(C)n2c1 [Example 40, ethyl 4-((8-((2,6-dimethylbenzyl)amino)-2,3-dimethylimidazo[1,2-a]pyridin-6-yl)amino)-4-oxobutanoate] | 6.30 to 7.00 |
| Cc1cccc(C)c1CNc1cc(NC(=O)CCOCCC(=O)OC(C)(C)C)cn2c(C)c(C)nc12 [Example 41] | < 6.30 |
| CNC(=O)Nc1cc(NCc2c(C)cc(F)cc2C)c2nc(C)c(C)n2c1 [Example 44, 1-(8-((4-fluoro-2,6-dimethylbenzyl)amino)-2,3-dimethylimidazo[1,2-a]pyridin-6-yl)-3-methylurea hydrochloride] | > 7.30 |
| COC(=O)CNC(=O)Nc1cc(NCc2c(C)cccc2C)c2nc(C)c(C)n2c1 [Example 46, hydrochloride] | 7.00 to 7.30 |
| Cc1cc(F)cc(C)c1CNc1cc(NC(=O)N(C)C)cn2c(C)c(C)nc12 [Example 49, 3-(8-((4-fluoro-2,6-dimethylbenzyl)amino)-2,3-dimethylimidazo[1,2-a]pyridin-6-yl)-1,1-dimethylurea hydrochloride] | > 7.30 |
| Cc1cc(F)cc(C)c1CNc1cc(NC(=O)NC2CC2)cn2c(C)c(C)nc12 [Example 50, 1-cyclopropyl-3-(8-((4-fluoro-2,6-dimethylbenzyl)amino)-2,3-dimethylimidazo[1,2-a]pyridin-6-yl)urea hydrochloride] | > 7.30 |
| CCCNC(=O)Nc1cc(NCc2c(C)cccc2C)c2nc(C)c(C)n2c1 [Example 54] | 6.30 to 7.00 |

same assay, conditions: result in words

| SMILES | inhibitory activity against proton pump activity |
| --- | --- |
| Cc1cccc(C)c1CNc1cc(NC(=O)NC2CC2)cn2c(C)c(C)nc12.Cl [Example 24, 1-cyclopropyl-3-(8-((2,6-dimethylbenzyl)amino)-2,3-dimethylimidazo[1,2-a]pyridin-6-yl)urea hydrochloride] | excellent inhibitory properties |
| CNC(=O)Nc1cc(NCc2c(C)cccc2C)c2nc(C)c(C)n2c1 [Example 33, hydrochloride] | excellent inhibitory properties |
